Assay results published in patent publication US10287276B2, “Heteroaryl-1,2,4-triazole and heteroaryl-tetrazole compounds for controlling ectoparasites” (Elanco Tiergesundheit AG, priority 2016, dated 2019).

Experiments:
[1] = system: Lucilla Cuprina (Australian Sheep Blowfly); experiment: Activity in vitro against Lucilla cuprina (Australian sheep blowfly), Assay B; set-up: species or system L. cuprina; conditions: larvae, percent mortality at 24 hours; for pest or weed control at 10 ppm: Lucilia cuprina, compound in bovine serum, read-out: efficacy (EC50)
Experimental: Activity In Vitro Against Lucilla Cuprina (Australian Sheep Blowfly)—Assay B
Compound formulated in bovine serum is dispensed into scintillation. A dental cotton roll is added to each vial to absorb the compound solution. L. cuprina larvae are added to each treatment vial. The vials are capped and held for 24 hours in an environmental chamber at appropriate temperature, humidity and light/dark cycles. Evaluations are only made at 24 hours because dead larvae after 24 hours may be cannibalized by the remaining live ones. Vials are examined for percent mortality.

[2] = system: Rhipicephalus sanguineus (Dog Tick); experiment: Activity in vitro against Rhipicephalus sanguineus (dog tick), Assay B, coated glass vials; conditions: contact with coated vials, assessment at 48 hours; for pest or weed control at 20 ppm: Rhipicephalus sanguineus, read-out: efficacy (EC50)
Experimental: Activity In Vitro Against Rhipicephalus sanguineus (Dog Tick)—Assay B
A solution of the test compounds is used to coat the inner wall of glass vials containing a filter paper on the bottom of each vial. A second filter paper is also coated and placed in the cap of the vial. Vials and caps are allowed to dry overnight. Each treated vial is infested with ticks. Contact of the ticks with residues is induced by holding the vials in a controlled environment and assessment is performed at 48 hours after application in comparison with untreated glass vials and solvent-treated glass vials.

[3] = system: Ctenocephalides Felis (Cat Flea); experiment: Activity in vitro against Ctenocephalides felis (cat flea), Assay B; conditions: % mortality at 48 hours post infestation; for pest or weed control at 10 ppm: Ctenocephalides felis, at 10 ppm in bovine blood, read-out: efficacy (EC50)
Experimental: Activity In Vitro Against Ctenocephalides Felis (Cat Flea)—Assay B
Test compounds are added to organic bovine blood contained in an artificial feeding container. Compounds with known insecticidal activity are included to serve as positive controls. Newly emerged unfed adult fleas from a laboratory colony are aspirated into each vial. The test cages are maintained using the artificial feeding apparatus to allow ingestion of compound. Fleas are evaluated for % mortality at 48 hours post infestation. Fleas showing normal movement and/or jumping ability are considered viable and those showing no movement are scored as dead.

SMILES	pest or weed control at 10 ppm [1]	pest or weed control at 20 ppm [2]	pest or weed control at 10 ppm [3]	EC50 [1]	EC50 [2]	EC50 [3]
CC(c1ncnn1-c1ncccn1)N(CC1CC1)C(=O)c1cc(C#N)cc(C(F)(F)F)c1 (centres unmarked) [Example 50, 3-Cyano-N-(cyclopropylmethyl)-N-[1-(2-pyrimidin-2-yl-1,2,4-triazol-3-yl)ethyl]-5-(trifluoromethyl)benzamide]	> 50%	> 50%	> 50%			
CC(c1ncnn1-c1ncccn1)N(CC1CC1)C(=O)c1cc(C(F)(F)F)nc(C(F)(F)F)c1 (centres unmarked) [Example 51, N-(Cyclopropylmethyl)-N-[1-(2-pyrimidin-2-yl-1,2,4-triazol-3-yl)ethyl]-2,6-bis(trifluoromethyl)pyridine-4-carboxamide]	> 50%		> 50%			
CCN(C(=O)c1cc(C(F)(F)F)cc(C(F)(F)F)c1)C(C)c1ncnn1-c1ncccn1 (centres unmarked) [Example 53, N-Ethyl-N-[1-(2-pyrimidin-2-yl-1,2,4-triazol-3-yl)ethyl]-3,5-bis(trifluoromethyl)benzamide]	> 50%		> 50%			
C#CCN(C(=O)c1cccc(C#N)c1)C(C)c1ncnn1-c1ncccn1 (centres unmarked) [Example 54, 3-Cyano-N-prop-2-ynyl-N-[1-(2-pyrimidin-2-yl-1,2,4-triazol-3-yl)ethyl]benzamide]		> 50%	> 50%			
CC(c1ncnn1-c1ncccn1)N(C)C(=O)c1cccc(C#N)c1 (centres unmarked) [Example 55, 3-Cyano-N-methyl-N-[1-(2-pyrimidin-2-yl-1,2,4-triazol-3-yl)ethyl]benzamide]		> 50%	> 50%			
CC(c1ncnn1-c1ncccn1)N(CC#N)C(=O)c1cc(C(F)(F)F)cc(C(F)(F)F)c1 (centres unmarked) [Example 56, N-(Cyanomethyl)-N-[1-(2-pyrimidin-2-yl-1,2,4-triazol-3-yl)ethyl]-3,5-bis(trifluoromethyl)benzamide]	> 50%		> 50%			
CC(NC(=O)c1cc(C#N)cc(C(F)(F)F)c1)c1ncnn1-c1ncccn1 (centres unmarked) [Example 57, 3-Cyano-N-[1-(2-pyrimidin-2-yl-1,2,4-triazol-3-yl)ethyl]-5-(trifluoromethyl)benzamide]	> 50%		> 50%			
C#CCN(C(=O)c1cc(C#N)cc(C(F)(F)F)c1)C(C)c1ncnn1-c1ncccn1 (centres unmarked) [Example 58, 3-Cyano-N-prop-2-ynyl-N-[1-(2-pyrimidin-2-yl-1,2,4-triazol-3-yl)ethyl]-5-(trifluoromethyl)benzamide]	> 50%	> 50%	> 50%			
CCN(C(=O)c1cc(C#N)cc(C(F)(F)F)c1)C(C)c1ncnn1-c1ncccn1 (centres unmarked) [Example 59, 3-Cyano-N-ethyl-N-[1-(2-pyrimidin-2-yl-1,2,4-triazol-3-yl)ethyl]-5-(trifluoromethyl)benzamide]	> 50%	> 50%	> 50%	0.77 ppm	14 ppm	1.6 ppm
CC(c1ncnn1-c1ncccn1)N(C)C(=O)c1cc(C#N)cc(C(F)(F)F)c1 (centres unmarked) [Example 60, 3-Cyano-N-methyl-N-[1-(2-pyrimidin-2-yl-1,2,4-triazol-3-yl)ethyl]-5-(trifluoromethyl)benzamide]	> 50%	> 50%	> 50%			
Cc1nc(C(C)N(CC2CC2)C(=O)c2cc(C(F)(F)F)cc(C(F)(F)F)c2)n(-c2ncccn2)n1 (centres unmarked) [Example 61, N-(Cyclopropylmethyl)-N-[1-(5-methyl-2-pyrimidin-2-yl-1,2,4-triazol-3-yl)ethyl]-3,5-bis(trifluoromethyl)benzamide]	> 50%	> 50%	> 50%			
CC(c1ncnn1-c1ncccn1)N(CC1CC1)C(=O)c1cc(Br)cc(C(F)(F)F)c1 (centres unmarked) [Example 62, 3-Bromo-N-(cyclopropylmethyl)-N-[1-(2-pyrimidin-2-yl-1,2,4-triazol-3-yl)ethyl]-5-(trifluoromethyl)benzamide]	> 50%	> 50%				
CC(NC(=O)c1cc(C(F)(F)F)cc(C(F)(F)F)c1)c1ncnn1-c1ncccn1 (centres unmarked) [Example 63, N-[1-(2-Pyrimidin-2-yl-1,2,4-triazol-3-yl)ethyl]-3,5-bis(trifluoromethyl)benzamide]	> 50%	> 50%	> 50%			
C[C@@H](c1ncnn1-c1ncc(F)cn1)N(CC1CC1)C(=O)c1cc(C(F)(F)F)cc(C(F)(F)F)c1 [Example 64, N-(Cyclopropylmethyl)-N-[(1S)-1-[2-(5-fluoropyrimidin-2-yl)-1,2,4-triazol-3-yl]ethyl]-3,5-bis(trifluoromethyl)benzamide]	> 50%		> 50%			
CC(c1ncnn1-c1ncccn1)N(C)C(=O)c1cc(C(F)(F)F)cc(C(F)(F)F)c1 (centres unmarked) [Example 65, N-Methyl-N-[1-(2-pyrimidin-2-yl-1,2,4-triazol-3-yl)ethyl]-3,5-bis(trifluoromethyl)benzamide]	> 50%	> 50%	> 50%			
C[C@H](NC(=O)c1cc(C(F)(F)F)cc(C(F)(F)F)c1)c1ncnn1-c1ncccn1 [Example 66, N-[(1S)-1-(2-Pyrimidin-2-yl-1,2,4-triazol-3-yl)ethyl]-3,5-bis(trifluoromethyl)benzamide]	> 50%		> 50%			
CC(c1ncnn1-c1ncccn1)N(C[Si](C)(C)C)C(=O)c1cc(C(F)(F)F)cc(C(F)(F)F)c1 (centres unmarked) [Example 67, N-[1-(2-pyrimidin-2-yl-1,2,4-triazol-3-yl)ethyl]-3,5-bis(trifluoromethyl)-N-(trimethylsilylmethyl)benzamide]	> 50%	> 50%	> 50%			
C[C@H](NC(=O)c1cccc(C#N)c1)c1ncnn1-c1ncc(F)cn1 [Example 68, 3-Cyano-N-[(1S)-1-[2-(5-fluoropyrimidin-2-yl)-1,2,4-triazol-3-yl]ethyl]benzamide]	> 50%	> 50%	> 50%			
C[C@H](NC(=O)c1cc(C(F)(F)F)cc(C(F)(F)F)c1)c1ncnn1-c1ncc(F)cn1 [Example 69, N-[(1S)-1-[2-(5-Fluoropyrimidin-2-yl)-1,2,4-triazol-3-yl]ethyl]-3,5-bis(trifluoromethyl)benzamide]	> 50%	> 50%	> 50%			
C[C@@H](c1ncnn1-c1ncccn1)N(CC1CC1)C(=S)c1cc(C(F)(F)F)cc(C(F)(F)F)c1 [Example 70]	> 50%	> 50%	> 50%			
CC(c1ncnn1-c1ncccn1)N(C)C(=O)c1cc(C(N)=S)cc(C(F)(F)F)c1 (centres unmarked) [Example 72, 3-Carbamothioyl-N-methyl-N-[1-(2-pyrimidin-2-yl-1,2,4-triazol-3-yl)ethyl]-5-(trifluoromethyl)benzamide]	> 50%		> 50%			
CCOC(OCC)c1nc(C(C)NC(=O)c2cc(C(F)(F)F)cc(C(F)(F)F)c2)n(-c2ncccn2)n1 (centres unmarked) [Example 73, N-[1-[5-(Diethoxymethyl)-2-pyrimidin-2-yl-1,2,4-triazol-3-yl]ethyl]-3,5-bis(trifluoromethyl)benzamide]		> 50%	> 50%			
COC(=O)c1nc(C(C)NC(=O)c2cc(C(F)(F)F)cc(C(F)(F)F)c2)n(-c2ncccn2)n1 (centres unmarked) [Example 74, Methyl 5-[1-[[3,5-bis(trifluoromethyl)benzoyl]amino]ethyl]-1-pyrimidin-2-yl-1,2,4-triazole-3-carboxylate]		> 50%				
C[C@@H](c1ncnn1-c1ncccn1)N(C)C(=O)c1cc(C(F)(F)F)cc(C(F)(F)F)c1 [Example 75, N-Methyl-N-[(1S)-1-(2-pyrimidin-2-yl-1,2,4-triazol-3-yl)ethyl]-3,5-bis(trifluoromethyl)benzamide]	> 50%	> 50%	> 50%			
